Measured values: US9211310B2, “Use of a Chinese medicine composition in preparing medicaments for treating secondary prevention of myocardial infarction” (TASLY PHARMACEUTICAL GROUP CO., LTD, priority 2010, dated 2015)

System: patients after acute myocardial infarction
Assay: TCM symptom score, total and single (chest pain, chest tightness, short breath, fatigue, palpitation, spontaneous perspiration, pale complexion), same clinical trial
Format: in vivo, human
Parameters: total score of TCM symptom, Mean / total score of TCM symptom, Min / total score of TCM symptom, Max / total score of TCM symptom, Md / change of total score of TCM symptom, Mean / change of total score of TCM symptom, Max / change of total score of TCM symptom, Md: scale not given here
Conditions: FAS
From the text: 3508 patients who were in accordance with the diagnostic standards of AMI for 28 days to 2 years and differentiated as Qi deficiency and blood stagnation syndrome by TCM were studied. 0.5 g Chinese medicine composition prepared by the method of EXAMPLE 1 (Coded as QSYQ) was administrated half an hour after meal, 3 times per day.
They included the overall survival time, angina pectoris score, TCM symptom score and life quality score, where angina pectoris score, TCM symptom score and life quality score were evaluated at randomization, in 1st, 3rd, 6th, 9th, 12th month after treatment and 18th month after follow-up.
The analysis method referred to the angina pectoris score.

[1] = 12 months after treatment-baseline

CC(=O)Oc1ccccc1C(=O)O [Control group, aspirine]
change of palpitation 3, number of patients [1]: 8 | change of palpitation 3, percent of patients [1]: (0.47%) | change of palpitation −1, percent of patients [1]: (6.55%) | change of palpitation −2, number of patients [1]: 4 | change of palpitation −2, percent of patients [1]: (0.23%) | change of palpitation −3, number of patients [1]: 0 | change of palpitation −3, percent of patients [1]: (0.00%) | change of spontaneous perspiration 0, number of patients [1]: 837 | change of spontaneous perspiration 0, percent of patients [1]: (48.98%) | change of spontaneous perspiration 1, number of patients [1]: 550 | change of spontaneous perspiration 1, percent of patients [1]: (32.18%) | change of spontaneous perspiration 2, number of patients [1]: 139 | change of spontaneous perspiration 2, percent of patients [1]: (8.13%) | change of spontaneous perspiration 3, number of patients [1]: 34 | change of spontaneous perspiration 3, percent of patients [1]: (1.99%) | change of spontaneous perspiration −1, number of patients [1]: 137 | change of spontaneous perspiration −1, percent of patients [1]: (8.02%) | change of spontaneous perspiration −2, number of patients [1]: 12 | change of spontaneous perspiration −2, percent of patients [1]: (0.70%) | change of spontaneous perspiration −3, number of patients [1]: 0 | change of spontaneous perspiration −3, percent of patients [1]: (0.00%) | change of total score of TCM symptom, Max [1]: 18.00 | change of total score of TCM symptom, Md [1]: −5.00 | change of total score of TCM symptom, Mean [1]: −5.39 | change of total score of TCM symptom, Min [1]: −33.00 | distribution of total score of TCM symptom: Medium, number of patients (Baseline): 817 | distribution of total score of TCM symptom: Medium, percentage of patients (Baseline): (47.83%) | distribution of total score of TCM symptom: Mild, number of patients (Baseline): 828 | distribution of total score of TCM symptom: Mild, percentage of patients (Baseline): (48.48%) | distribution of total score of TCM symptom: Severe, number of patients (Baseline): 63 | distribution of total score of TCM symptom: Severe, percentage of patients (Baseline): (3.69%) | fatigue score 0, % of patients (Baseline): (18.42%) | fatigue score 0, number of patients (Baseline): 315 | fatigue score 2, % of patients (Baseline): (60.94%) | fatigue score 2, number of patients (Baseline): 1042 | fatigue score 4, % of patients (Baseline): (16.90%) | fatigue score 4, number of patients (Baseline): 289 | fatigue score 6, % of patients (Baseline): (3.74%) | fatigue score 6, number of patients (Baseline): 64 | pale complexion score 0, number of patients (Baseline): 572 | pale complexion score 0, percent of patients (Baseline): (33.47%) | pale complexion score 1, number of patients (Baseline): 741 | pale complexion score 1, percent of patients (Baseline): (43.36%) | pale complexion score 2, number of patients (Baseline): 325 | pale complexion score 2, percent of patients (Baseline): (19.02%) | pale complexion score 3, number of patients (Baseline): 71 | pale complexion score 3, percent of patients (Baseline): (4.15%) | short breath score 0, % of patients (Baseline): (15.04%) | short breath score 0, number of patients (Baseline): 257 | short breath score 3, % of patients (Baseline): (51.84%) | short breath score 3, number of patients (Baseline): 886 | short breath score 6, % of patients (Baseline): (31.19%) | short breath score 6, number of patients (Baseline): 533 | short breath score 9, % of patients (Baseline): (1.93%) | short breath score 9, number of patients (Baseline): 33 | distribution of total score of TCM symptom: Medium, number of patients (Follow-up): 218 | distribution of total score of TCM symptom: Medium, percentage of patients (Follow-up): (15.29%) | distribution of total score of TCM symptom: Mild, number of patients (Follow-up): 1205 | distribution of total score of TCM symptom: Mild, percentage of patients (Follow-up): (84.50%) | distribution of total score of TCM symptom: Severe, number of patients (Follow-up): 3 | distribution of total score of TCM symptom: Severe, percentage of patients (Follow-up): (0.21%) | fatigue score 0, % of patients (Follow-up): (42.76%) | fatigue score 0, number of patients (Follow-up): 611 | fatigue score 2, % of patients (Follow-up): (53.11%) | fatigue score 2, number of patients (Follow-up): 759 | fatigue score 4, % of patients (Follow-up): (3.92%) | fatigue score 4, number of patients (Follow-up): 56 | fatigue score 6, % of patients (Follow-up): (0.21%) | fatigue score 6, number of patients (Follow-up): 3 | pale complexion score 0, number of patients (Follow-up): 882 | pale complexion score 0, percent of patients (Follow-up): (61.72%) | pale complexion score 1, number of patients (Follow-up): 465 | pale complexion score 1, percent of patients (Follow-up): (32.54%) | pale complexion score 2, number of patients (Follow-up): 76 | pale complexion score 2, percent of patients (Follow-up): (5.32%) | pale complexion score 3, number of patients (Follow-up): 6 | pale complexion score 3, percent of patients (Follow-up): (0.42%) | palpitation score 0, number of patients (Follow-up): 631 | palpitation score 0, percent of patients (Follow-up): (44.16%) | palpitation score 2, number of patients (Follow-up): 697 | palpitation score 2, percent of patients (Follow-up): (48.78%) | palpitation score 4, number of patients (Follow-up): 95 | palpitation score 4, percent of patients (Follow-up): (6.65%) | palpitation score 6, number of patients (Follow-up): 6 | palpitation score 6, percent of patients (Follow-up): (0.42%) | short breath score 0, % of patients (Follow-up): (35.62%) | short breath score 0, number of patients (Follow-up): 509 | short breath score 2, % of patients (Follow-up): (0.07%) | short breath score 2, number of patients (Follow-up): 1 | short breath score 3, % of patients (Follow-up): (54.51%) | short breath score 3, number of patients (Follow-up): 779 | short breath score 6, % of patients (Follow-up): (9.59%) | short breath score 6, number of patients (Follow-up): 137 | short breath score 9, % of patients (Follow-up): (0.21%) | short breath score 9, number of patients (Follow-up): 3 | spontaneous perspiration score 0, number of patients (Follow-up): 767 | spontaneous perspiration score 0, percent of patients (Follow-up): (53.71%) | spontaneous perspiration score 1, number of patients (Follow-up): 595 | spontaneous perspiration score 1, percent of patients (Follow-up): (41.67%) | spontaneous perspiration score 2, number of patients (Follow-up): 62 | spontaneous perspiration score 2, percent of patients (Follow-up): (4.34%) | spontaneous perspiration score 3, number of patients (Follow-up): 4 | spontaneous perspiration score 3, percent of patients (Follow-up): (0.28%) | total score of TCM symptom, Max (Follow-up): 32.00 | total score of TCM symptom, Md (Follow-up): 7.00 | total score of TCM symptom, Mean (Follow-up): 7.71 | total score of TCM symptom, Min (Follow-up): 0.00 | change of fatigue 0, % of patients (Follow-up-baseline): (42.67%) | change of fatigue 0, number of patients (Follow-up-baseline): 608 | change of fatigue 2, % of patients (Follow-up-baseline): (37.68%) | change of fatigue 2, number of patients (Follow-up-baseline): 537 | change of fatigue 4, % of patients (Follow-up-baseline): (11.09%) | change of fatigue 4, number of patients (Follow-up-baseline): 158 | change of fatigue 6, % of patients (Follow-up-baseline): (2.11%) | change of fatigue 6, number of patients (Follow-up-baseline): 30 | change of fatigue −2, % of patients (Follow-up-baseline): (6.11%) | change of fatigue −2, number of patients (Follow-up-baseline): 87 | change of fatigue −4, % of patients (Follow-up-baseline): (0.35%) | change of fatigue −4, number of patients (Follow-up-baseline): 5 | change of pale complexion 0, number of patients (Follow-up-baseline): 950 | change of pale complexion 0, percent of patients (Follow-up-baseline): (66.95%) | change of pale complexion 1, number of patients (Follow-up-baseline): 430 | change of pale complexion 1, percent of patients (Follow-up-baseline): (30.30%)
